Assays:
Del19/T790M/C797S EGFR = assay: EGFR degradation HTRF assay in H1975-clone #28 (DTC) cells; assay type: cell-based; settings: H1975 # 28 DTC (Del19/T790M/C797S), 16h treatment; for DC50: HTRF; for Dmax (%): maximum percentage of degradation
Procedure, shortened: (§1)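 Remaining EGFR protein was measured by HTRF (337 nm excitation, 665/620 nm emission) in lysates after overnight antibody incubation. Cells had been exposed for 16 h to an 8-point, 5-fold series starting at 10 uM, and DC50 values were fitted with a Hill equation.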

L858R/T790M/C797S EGFR = molecular target: T1, L858R/T790M/C797S EGFR (Homo sapiens, UniProt P00533, C797S/L858R/T790M); assay: EGFR degradation HTRF assay in H1975-clone #25 (LTC) cells; assay type: cell-based; settings: 16h treatment; for DC50: H1975 # 25-LTC (L858R/T790M/C797S), HTRF; for Dmax: NCI-H1975, H1975 # 25-LTC (L858R/T790M/C797S), maximum percentage of degradation
T1 construct: expressed in transfected cells; host or cells: H1975 clone #25 (lentiviral over-expression, endogenous EGFR knocked out by sgRNA)
T1 sequence (P00533 25-1210 T790M/C797S/L858R): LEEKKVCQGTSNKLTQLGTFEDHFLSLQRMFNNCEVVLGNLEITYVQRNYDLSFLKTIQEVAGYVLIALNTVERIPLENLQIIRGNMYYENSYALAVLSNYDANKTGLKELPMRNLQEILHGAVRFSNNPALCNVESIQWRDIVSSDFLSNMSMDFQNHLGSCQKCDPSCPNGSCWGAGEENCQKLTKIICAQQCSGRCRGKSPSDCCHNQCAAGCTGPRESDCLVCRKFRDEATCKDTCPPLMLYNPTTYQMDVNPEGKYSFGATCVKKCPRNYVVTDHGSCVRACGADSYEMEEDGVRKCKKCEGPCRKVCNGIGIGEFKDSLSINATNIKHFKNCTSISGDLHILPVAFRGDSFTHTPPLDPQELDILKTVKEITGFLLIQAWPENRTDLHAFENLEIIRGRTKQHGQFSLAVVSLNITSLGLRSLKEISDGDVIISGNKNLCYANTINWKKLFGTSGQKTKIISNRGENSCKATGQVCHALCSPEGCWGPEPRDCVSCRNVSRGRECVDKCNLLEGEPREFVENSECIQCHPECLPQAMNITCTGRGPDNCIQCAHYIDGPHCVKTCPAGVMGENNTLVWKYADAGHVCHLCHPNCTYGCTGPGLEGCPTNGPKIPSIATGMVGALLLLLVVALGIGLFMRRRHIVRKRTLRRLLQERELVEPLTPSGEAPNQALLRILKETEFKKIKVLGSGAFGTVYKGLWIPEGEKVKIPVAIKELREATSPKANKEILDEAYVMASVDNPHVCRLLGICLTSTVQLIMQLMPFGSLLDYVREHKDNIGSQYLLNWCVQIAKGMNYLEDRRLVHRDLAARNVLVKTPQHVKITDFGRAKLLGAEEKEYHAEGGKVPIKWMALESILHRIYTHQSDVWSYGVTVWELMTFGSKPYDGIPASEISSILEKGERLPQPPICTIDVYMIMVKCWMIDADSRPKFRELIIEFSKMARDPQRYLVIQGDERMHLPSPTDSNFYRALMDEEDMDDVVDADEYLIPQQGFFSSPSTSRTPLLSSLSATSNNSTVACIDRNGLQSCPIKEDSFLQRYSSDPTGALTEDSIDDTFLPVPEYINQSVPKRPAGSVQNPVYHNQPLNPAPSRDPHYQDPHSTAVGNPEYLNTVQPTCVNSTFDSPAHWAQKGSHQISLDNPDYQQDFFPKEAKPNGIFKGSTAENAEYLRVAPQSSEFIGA
Procedure, shortened: as §1

SMILES	DC50 (Del19/T790M/C797S EGFR) [nM]	DC50 (L858R/T790M/C797S EGFR) [nM]	Dmax (L858R/T790M/C797S EGFR) [%]	Dmax (%) (Del19/T790M/C797S EGFR)
Cc1cc2cc(n1)-c1cnn(C)c1OCCC[C@@H](C)CN1/C(=N/C2=O)Nc2ccc(CN3CCN(C(=O)[C@@H]4CCN(c5cc(F)c(C6CCC(=O)NC6=O)c(F)c5)C4)[C@H](C)C3)cc21 (stereo partly drawn) [Example 106, (R)-3-(2,6-difluoro-4-((R)-3-((R)-2-methyl-4-(((R,E)-1^1,2^6m7-trimethyl-3-oxo-5^2,5^3-dihydro-1^1H,5^1H -11-oxa-4-aza-5(2,1)-benzo[d]imidazola-2(2,4)-pyridina-1(4,5)-pyrazolacycloundecaphane-5^6-yl)methyl)piperazine-1-carbonyl)pyrrolidin-1-yl)phenyl)piperidine-2,6-dione]	1.2	1.7	79.1	74.4
Cc1cc2cc(n1)-c1cnn(C)c1OCCC[C@@H](C)CN1/C(=N/C2=O)Nc2cc(C)c(CN3CCN(CC4CN(c5cc(F)c([C@H]6CCC(=O)NC6=O)c(F)c5)C4)CC3)cc21 [Example 147, (R)-3-(2,6-difluoro-4-(3-((4-(((R,E)-1^1,2^6,5,7-tetramethyl-3-oxo-5^2,5′-dihydro-1^1H,5^1H-11-oxa-4-aza-5(2,1)-benzo[d]imidazola-2(2,4)-pyridina-(4,5)-pyrazolacycloundecaphane-5^6-yl)methyl)piperazin-1-yl)methyl)azetidin-1-yl)phenyl)piperidine-2,6-dione]	2.41	1.83	81.4	69.47
Cc1cc2cc(n1)-c1cnn(C)c1OCCC[C@@H](C)CN1/C(=N/C2=O)Nc2ccc(CN3CCN(CC4CN(c5cc(F)c([C@H]6CCC(=O)NC6=O)c(F)c5)C4)CC3)c(C)c21 [Example 148, (R)-3-(2,6-difluoro-4-(3-((4-(((R,E)-1^1,2^6,5^7,7-tetramethyl-3-oxo-5^2,5^3-dihydro-1^1H,5^1H-11-oxa-4-aza-5(2,1)-benzo[d]imidazola-2(2,4)-pyridina-1(4,5)-pyrazolacycloundecaphane-5^6-yl)methyl)piperazin-1-yl)methyl)azetidin-1-yl)phenyl)piperidine-2,6-dione]	3.09	1.89	78.7	70.93
Cc1cc2cc(n1)-c1cnn(C)c1OCCC[C@@H](C)CN1/C(=N/C2=O)Nc2ccc(CN3CCN(CC4CN(c5cc(F)c([C@H]6CCC(=O)NC6=O)c(F)c5)C4)CC3)cc21 [Example 150, (R)-3-(2,6-difluoro-4-(3-((4-(((R,E)-1^1,2^6,7-trimethyl-3-oxo-5^2,5^1-dihydro-1^1H,5^1H-11-oxa-4-aza-5(2,1)-benzo[d]imidazola-2(2,4)-pyridina-(4,5)-pyrazolacycloundecaphane-5^6-yl)methyl)piperazin-1-yl)methyl)azetidin-1-yl)phenyl)piperidine-2,6-dione]	2.17	0.705	87.9	79.66
Cc1cc2cc(n1)-c1cnn(C)c1OCCC[C@H](C)CN1/C(=N/C2=O)Nc2c(C)cc(CN3CCN(C(=O)C4CN(c5cc(F)c([C@H]6CCC(=O)NC6=O)c(F)c5)C4)CC3)cc21 [Example 154, (R)-3-(2,6-difluoro-4-(3-(4-(((S,E)-11,26,54,7-tetramethyl-3-oxo-5^2,5^1-dihydro-1^1H,5^1H-11-oxa-4-aza-5(2,1)-benzo[d]imidazola-2(2,4)-pyridina-1(4,5)-pyrazolacycloundecaphane-5^6-yl)methyl)piperazine-1-carbonyl)azetidin-1-yl)phenyl)piperidine-2,6-dione]	0.994	0.998	79.4	78.94
Cc1cc2cc(n1)-c1cnn(C)c1OCCC[C@@H](C)CN1/C(=N/C2=O)Nc2ccc(OC3CCN(C(=O)C4CN(c5cc(F)c([C@H]6CCC(=O)NC6=O)c(F)c5)C4)CC3)cc21 [Example 156, (R)-3-(2,6-difluoro-4-(3-(4-(((R,E)-1^1,2^6,7-trimethyl-3-oxo-5^2,5^3-dihydro-1^1H,5^1H-11-oxa-4-aza-5(2,1)-benzo[d]imidazola-2(2,4)-pyridina-1(4,5)-pyrazolacycloundecaphane-5^6-yl)oxy)piperidine-1-carbonyl)azetidin-1-yl)phenyl)piperidine-2,6-dione]	1.2	0.634	86.9	72.74
Cc1cc2cc(n1)-c1cnn(C)c1OCCC[C@@H](C)CN1/C(=N/C2=O)Nc2ccc(CC3CCN(C(=O)C4CN(c5cc(F)c([C@H]6CCC(=O)NC6=O)c(F)c5)C4)CC3)cc21 [Example 159, (R)-3-(2,6-difluoro-4-(3-(4-(((R,E)-1^1,2^6,7-trimethyl-3-oxo-5^2,5^3-dihydro-1^1H,5^1H-11-oxa-4-aza-5(2,1)-benzo[d]imidazola-2(2,4)-pyridina-1(4,5)-pyrazolacycloundecaphane-5^6-yl)methyl)piperidine-1-carbonyl)azetidin-1-yl)phenyl)piperidine-2,6-dione]	1.77	1.48	79.9	79.77
Cc1cc2cc(n1)-c1cnn(C)c1OCCC[C@@H](C)CN1/C(=N/C2=O)Nc2ccc(CN3CC4CC(C3)N4C(=O)[C@@H]3CCN(c4cc(F)c([C@H]5CCC(=O)NC5=O)c(F)c4)C3)cc21 [Example 163, (3R)-3-(2,6-difluoro-4-((3R)-3-(3-(((R,E)-1^1,2^6,7-trimethyl-3-oxo-5^2,5^3-dihydro-1^1H,5^1H-11-oxa-4-aza-5(2,1)-benzo[d]imidazola-2(2,4)-pyridina-1(4,5)-pyrazolacycloundecaphane-5^6-yl)methyl)-3,6-diazabicyclo[3.1.1]heptane-6-carbonyl)pyrrolidin-1-yl)phenyl)piperidine-2,6-dione]	1.76	1.14	83.1	66.41
Cc1cc2cc(n1)-c1cnn(C)c1OCCC[C@@H](C)CN1/C(=N/C2=O)Nc2ccc(CN3CC4CCC3CN4C(=O)[C@@H]3CCN(c4cc(F)c([C@H]5CCC(=O)NC5=O)c(F)c4)C3)cc21 (stereo partly drawn) [Example 164, (3R)-3-(2,6-difluoro-4-((3R)-3-(5-(((R,E)-1^1,2^6,7-trimethyl-3-oxo-5^2,5^3-dihydro-1^1H,5^1H-11-oxa-4-aza-5(2,1)-benzo[d]imidazola-2(2,4)-pyridina-1(4,5)-pyrazolacycloundecaphane-5^6-yl)methyl)-2,5-diazabicyclo[2.2.2]octane-2-carbonyl)pyrrolidin-1-yl)phenyl)piperidine-2,6-dione]	1.95	1.46	83.1	73.21

Stronger by DC50 (Del19/T790M/C797S EGFR), values ahead:

DC50 (Del19/T790M/C797S EGFR) [nM]	DC50 (L858R/T790M/C797S EGFR) [nM]	Dmax (L858R/T790M/C797S EGFR) [%]	SMILES	Dmax (%) (Del19/T790M/C797S EGFR)
0.868	0.852	82.2	Cc1cc2cc(n1)-c1cnn(C)c1OCCC[C@@H](C)CN1/C(=N/C2=O)Nc2ccc(C3CCN(C(=O)C4CN(c5cc(F)c([C@H]6CCC(=O)NC6=O)c(F)c5)C4)CC3)cc21 [Example 158, (R)-3-(2,6-difluoro-4-(3-(4-((R,E)-1^1,2^6,7-trimethyl-3-oxo-5^2,5-dihydro-1^1H,5^1H-11-oxa-4-aza-5(2, 1)-benzo[d]imidazola-2(2,4)-pyridina-1(4,5)-pyrazolacycloundecaphane-5^6-yl)piperidine-1-carbonyl)azetidin-1-yl)phenyl)piperidine-2,6-dione]	72.14
0.7	1.4	82.7	Cc1cc2cc(n1)-c1cnn(C)c1OCCC[C@@H](C)CN1/C(=N/C2=O)Nc2ccc(CN3CCN(C(=O)[C@@H]4CCN(c5cc(F)c([C@H]6CCC(=O)NC6=O)c(F)c5)C4)C[C@@H]3C)cc21 [Example 99]	75.6
0.7	1	85.5	Cc1cc2cc(n1)-c1cnn(C)c1OCCC[C@@H](C)CN1/C(=N/C2=O)Nc2ccc(CN3CCN(C(=O)[C@@H]4CCN(c5cc(F)c([C@H]6CCC(=O)NC6=O)c(F)c5)C4)C[C@H]3C)cc21 [Example 100, (R)-3-(2,6-difluoro-4-((R)-3-((R)-3-methyl-4-(((R,E)-1^1,2^6,7-trimethyl-3-oxo-5^2,5^3-dihydro-1^1H,5^1H -11-oxa-4-aza-5(2,1)-benzo[d]imidazola-2(2,4)-pyridina-(4,5)-pyrazolacycloundecaphane-5^6-yl)methyl)piperazine-1-carbonyl)pyrrolidin-1-yl)phenyl)piperidine-2,6-dione]	72.8
0.557	0.598	79.1	Cc1cc2cc(n1)-c1cnn(C)c1OCCC[C@@H](C)CN1/C(=N/C2=O)Nc2ccc(CN3CCN(C(=O)C4CCN(c5cc(F)c([C@H]6CCC(=O)NC6=O)c(F)c5)CC4)CC3)cc21 [Example 162, (R)-3-(2,6-difluoro-4-(4-(4-(((R,E)-1^1,2^6,7-trimethyl-3-oxo-5^2, 5^3-dihydro-1^1H,5^1H-11-oxa-4-aza-5(2,1)-benzo[d]imidazola-2(2,4)-pyridina-1(4,5)-pyrazolacycloundecaphane-5^6-yl)methyl)piperazine-1-carbonyl)piperidin-1-yl)phenyl)piperidine-2,6-dione]	71.45
0.508	0.761	80.8	Cc1cc2cc(n1)-c1cnn(C)c1OCCCCCN1/C(=N/C2=O)Nc2ccc(CN3CCN(CCc4cc(F)c([C@H]5CCC(=O)NC5=O)c(F)c4)CC3)cc21 [Example 144, (R,E)-3-(4-(2-(4-((1^1,2^6-dimethyl-3-oxo-5^2,5^3-dihydro-1^1H,5^1H-11-oxa-4-aza-5(2,1)-benzo[d]imidazola-2(2,4)-pyridina-1(4,5)-pyrazolacycloundecaphane-5^6-yl)methyl)piperazin-1-yl)ethyl)-2,6-difluorophenyl)piperidine-2,6-dione]	55.85
